Values of other authors, collected in US20240115593A1, “METHISOPRINOL COMPOSITIONS” (priority 2020, published 2024).

Details: water solution without additional 1-dimethylaminopropan-2-ol 4-acetamidobenzoate, stored at +20° C. to +2° C.

Methisoprinol
time after which Methisoprinol crystallizes out: 6 days
